We go through 1 compound from patent US10266520B2, “Bisamidinium-based inhibitors for the treatment of myotonic dystrophy” (The Board of Trustees of the University of Illinois, priority 2014, dated 2019).

In this test the target is MBNL1-(CUG)16 complex. Description: EMSA inhibition of the MBNL1-(CUG)16 complex. The following applies: EMSA; KI=IC50×KD/[protein]total; read-out: KI, apparent inhibition constant, MBNL1-(CUG)16 complex. It counts as biochemical. The procedure: FIG. 1A-B. Determination of inhibition constants, KI, by EMSA. (a) Representative gels showing the release of (CUG)16 at different ligand concentrations. Top band is the MBNL1-(CUG)16 complex, the bottom band is the free (CUG)16. (b) IC50 values were obtained by plotting the RNA fraction bound versus ligand concentrations. The apparent inhibition constant (KI) was calculated using the equation: KI=IC50×KD/[protein]total, where KD is the dissociation constant of the MBNL1-RNA complex and [protein] is at least 7-fold greater than the KD. Error bars represent standard deviation of three independent experiments.
An electrophoretic mobility shift assay (EMSA) was employed to determine the in vitro inhibition of MBNL1-rCUG^exp complex by monomer 1a and dimers 2a-b (FIG. 1). This study used (CUG)16, which can form a hairpin structure containing a maximum of 8 U-U mismatches. […] Likely, a 1:1 complex was formed. In this study, a truncated MBNL1 (1-272 amino acids) containing four zinc finger motifs of MBNL1 and a hexahistidine tag (C-terminus) was employed. This MBNL1 construct and the full-length MBNL1 have the similar affinities to rCUG repeats.
To determine the inhibition constant of bivalent ligands 2a and 2b, the MBNL1-(CUG)16 mixture, in which ca. 50% of the RNA is free, was incubated with various concentrations of ligand (FIG. 1a). The dimer concentrations were not raised to higher than 10 μM due to the aggregation on the gel at high concentrations. As the concentration of ligand increased, more RNA was released from the complex with MBNL protein. By fitting the plot of bound RNA fractions versus ligand concentrations with an appropriate equation, the IC50 value was determined (FIG. 1b).
(CUG)16 RNA was labeled with [γ-^32P]-ATP using T4 poly-nucleotide kinase (New England Biolabs). Labeled RNA was purified by phenol extraction and ethanol precipitation. Labeled RNA was heated at 95° C. for 5 min, then placed on ice for 10 min and diluted in protein binding buffer (175 mM NaCl, 5 mM MgCl2, 20 mM Tris-HCl (pH 8), 1.25 mM 2-mercapto-ethanol (BME), 12.5% glycerol, 2 mg/ml bovine serum albumin (BSA), 0.1 mg/ml heparin, 0.05% or 0.1% Triton X). For MBNL1-(CUG)16 binding study, MBNL1 was serially diluted by a factor of 3 in protein binding buffer. To each solution was added labeled RNA, so that the final concentration of RNA was 0.2 nM. The resulting mixtures were incubated at room temperature for 10 min and loaded onto a 6% polyacrylamide gel (80:1) at 4° C. The gel was run for 2 h at 180 V in Tris-Borate 0.5× buffer (pH 8.2-8.3). Gels were dried at 80° C. under high vacuum for 2 h, developed overnight in phosphor exposure cassette, and visualized on a Molecular Dynamics Storm PhosphorImager. The KD (1:1 stoichiometry assumption) was obtained by fitting the normalized fraction RNA bound versus the concentration of protein using the equation: Fraction RNA bound=Bmax×[MBNL1]total^h/(KD^h+MBNL1]total^h) where Bmax is maximum fraction RNA bound, h is a Hill slope. Protein concentration in reaction mixture was larger than 10-fold excess over RNA concentration. Data is illustrated in FIGS. 6 and 7.

Take `N=C(NCCCCNc1nc(N)nc(N)n1)c1ccc(C(=N)NCCCCNc2nc(N)nc(NCCCn3cc(CCNc4nc(N)nc(NCCCCNC(=N)c5ccc(C(=N)NCCCCNc6nc(N)nc(N)n6)cc5)n4)nn3)n2)cc1` [Compound 2b]: the Ki was 36 ± 12 nM.
